Five compounds from patent US10519211B2, “Compounds as peptidic GLP1/glucagon/GIP receptor agonists” (SANOFI, priority 2016, dated 2019) can be followed below.

Common to all, as to type: physicochemical
Data set [1] is described as follows: Chemical stability assessment (UPLC-UV, relative purity loss). The conditions noted are these: 1 mg/ml, 25 mM acetate buffer pH 4.5 with m-cresol (buffer system A). The method, boiled down:
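Peptide at 1 mg/mL (purity-corrected) in 25 mM acetate pH 4.5 with methionine, m-cresol and glycerol, sterile-filtered, stored 28 days at 40° C. Purity measured by UPLC-UV as peptide peak area fraction at start and after storage; value is relative percent purity loss.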

Data set [2] is described as follows: Solubility assessment (UPLC-UV). Particulars: acetate buffer pH 4.5, 2.7 mg/ml m-cresol (buffer system A), target 10 mg/ml. The essentials: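 Peptides at 10 mg/mL (purity-corrected, by UPLC/MS) in 100 mM acetate buffer pH 4.5 with 2.7 mg/ml m-Cresol, gently agitated 1 hour, then centrifuged 15 min at 2500 RCF. Supernatant, diluted 1:10, quantified by UPLC-UV peak area against a reference peptide standard curve, extinction-coefficient corrected.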

Data set [3] in a line: Thioflavin T (ThT) assay for physical stability (fibrillation). Particulars: 3 mg/ml, 100 mM acetate pH 4.5 with m-cresol, shaking at 37° C. The method, boiled down: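 Peptide at 3 mg/ml with 100 μM ThT in 100 mM acetate pH 4.5 with m-cresol, stressed at 37° C by cycles of 10 s shaking at 960 rpm and 50 s rest. Fluorescence read every 20 minutes, eight replicates; lag time in hours.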

Data set [4] can be described thus: Dynamic light scattering (DLS), hydrodynamic radius as surrogate for interaction parameter kD. The conditions noted are these: for Delta Rh [nm] = Rh5 − Rh1: DLS buffer system A pH 4.5; for Rh1 [nm] c= 1 mg/ml / Rh5 [nm] c = 5 mg/ml: hydrodynamic radius, DLS buffer system A pH 4.5, DLS method C, 25° C. The essentials:
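Rh and diffusion constant measured in triplicate at 1 and 5 mg/ml peptide in 25 mM acetate pH4.5 with methionine, m-cresol and glycerol, at 25°C, 830 nm, 158°. Rh5<Rh1 or D5>D1 taken as kD>0, indicating repulsive interactions.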

Molecules are shown by their SMILES. Numbered stars: 1 amine (or outer) side, 2 acyl side, 3 side chain; on linkers, the order of the positions; unused ones are H or OH. Square brackets hold non-standard residues; d marks the D form. Side chains are listed from the residue outwards. Peptide text beside a SMILES is read from it. * marks the point of attachment. γGlu = O=C(O)[C@H](CCC(=O)[*:2])N[*:1]; Palmitoyl = CCCCCCCCCCCCCCCC(=O)*; Aib = CC(C)(N)C(=O)O

Regarding `CCCCCCCCCCCCCCCC(=O)N[C@@H](CCC(=O)N[C@@H](CCC(=O)NCCCC[C@H](NC(=O)[C@H](CC(C)C)NC(=O)[C@H](CCCCN)NC(=O)[C@H](CO)NC(=O)[C@H](CC(C)C)NC(=O)[C@H](CC(=O)O)NC(=O)[C@H](CO)NC(=O)[C@@H](NC(=O)[C@H](Cc1ccccc1)NC(=O)[C@@H](NC(=O)CNC(=O)[C@H](CCC(N)=O)NC(=O)C(C)(C)NC(=O)[C@@H](N)Cc1c[nH]cn1)[C@@H](C)O)[C@@H](C)O)C(=O)N[C@@H](CCC(=O)O)C(=O)N[C@@H](CCC(=O)O)C(=O)N[C@@H](CCC(N)=O)C(=O)N[C@@H](CCCNC(=N)N)C(=O)N[C@@H](CCC(N)=O)C(=O)NC(C)(C)C(=O)N[C@@H](CCC(=O)O)C(=O)N[C@@H](Cc1ccccc1)C(=O)N[C@H](C(=O)N[C@@H](CCC(=O)O)C(=O)N[C@@H](Cc1c[nH]c2ccccc12)C(=O)N[C@@H](CC(C)C)C(=O)N[C@@H](CCCCN)C(=O)N[C@@H](C)C(=O)NCC(=O)NCC(=O)N[C@@H](Cc1c[nH]cn1)C(=O)N1CCC[C@H]1C(=O)N[C@@H](CO)C(=O)NC(C)(C)C(=O)N[C@@H](CCCCN)C(=O)N1CCC[C@H]1C(=O)N1CCC[C@H]1C(=O)N1CCC[C@H]1C(=O)N[C@@H](CCCCN)C(N)=O)[C@@H](C)CC)C(=O)O)C(=O)O` [SEQ ID NO: 8, H-Aib-Q-G-T-F-T-S-D-L-S-K-L-K[gGlu-gGlu-Palm]-E-E-Q-R-Q-Aib-E-F-I-E-W-L-K-A-G-G-H-P-S-Aib-K-P-P-P-K-NH2], the “Chemical stability [relative purity loss 28 days 40° C.] (%) at pH 4.5” value in data set [1] came out at 7.6%. The solubility – broadly, how much of the substance goes into solution per volume – at 1 h in data set [2] is greater than 10000 µg/mL. Further, in data set [3], the “Lag time before increase” value was greater than 45 h.
Take `CCCCCCCCCCCCCCCC(=O)N[C@@H](CCC(=O)N[C@@H](CCC(=O)NCCCC[C@H](NC(=O)[C@H](CC(C)C)NC(=O)[C@H](CCCCN)NC(=O)[C@H](CO)NC(=O)[C@H](CC(C)C)NC(=O)[C@H](CC(=O)O)NC(=O)[C@H](CO)NC(=O)[C@@H](NC(=O)[C@H](Cc1ccccc1)NC(=O)[C@@H](NC(=O)CNC(=O)[C@H](CCC(N)=O)NC(=O)C(C)(C)NC(=O)[C@@H](N)Cc1c[nH]cn1)[C@@H](C)O)[C@@H](C)O)C(=O)N[C@@H](CCC(=O)O)C(=O)N[C@@H](CCCCN)C(=O)N[C@@H](CCC(N)=O)C(=O)N[C@@H](CCCNC(=N)N)C(=O)N[C@@H](CCC(N)=O)C(=O)NC(C)(C)C(=O)N[C@@H](CCC(=O)O)C(=O)N[C@@H](Cc1ccccc1)C(=O)N[C@H](C(=O)N[C@@H](CCC(=O)O)C(=O)N[C@@H](Cc1c[nH]c2ccccc12)C(=O)N[C@@H](CC(C)C)C(=O)N[C@@H](CCCCN)C(=O)N[C@@H](C)C(=O)N[C@H](C)C(=O)NCC(=O)N[C@@H](Cc1c[nH]cn1)C(=O)N1CCC[C@H]1C(=O)N[C@@H](CO)C(=O)NC(C)(C)C(=O)N[C@@H](CCCCN)C(=O)N1CCC[C@H]1C(=O)N1CCC[C@H]1C(=O)N1CCC[C@H]1C(=O)N[C@@H](CCCCN)C(N)=O)[C@@H](C)CC)C(=O)O)C(=O)O` [SEQ ID NO: 13, H-Aib-Q-G-T-F-T-S-D-L-S-K-L-K[gGlu-gGlu-Palm]-E-K-Q-R-Q-Aib-E-F-I-E-W-L-K-A-dAla-G-H-P-S-Aib-K-P-P-P-K-NH2] (H-H[Aib]QGTFTSDLSKLK([γGlu-γGlu-Palmitoyl])EKQRQ[Aib]EFIEWLKA[dA]GHPS[Aib]KPPPK-NH2): the “Chemical stability [relative purity loss 28 days 40° C.] (%) at pH 4.5” value in data set [1] turned out to be 4.5%. In data set [2], the solubility at 1 h was greater than 9300 µg/mL. In data set [4], the “Delta Rh [nm] = Rh5 − Rh1” value is reported as −0.3 nm, the “Rh1 [nm] c= 1 mg/ml” value is given as 2.8 nm and the “Rh5 [nm] c = 5 mg/ml” value is 2.5 nm. In addition, the “Lag time before increase” value in data set [3] is reported as greater than 45 h.
On to `CCCCCCCCCCCCCCCC(=O)N[C@@H](CCC(=O)N[C@@H](CCC(=O)NCCCC[C@H](NC(=O)[C@H](CC(C)C)NC(=O)[C@H](CCCCN)NC(=O)[C@H](CO)NC(=O)[C@H](CC(C)C)NC(=O)[C@H](CC(=O)O)NC(=O)[C@H](CO)NC(=O)[C@@H](NC(=O)[C@H](Cc1ccccc1)NC(=O)[C@@H](NC(=O)CNC(=O)[C@H](CCC(N)=O)NC(=O)C(C)(C)NC(=O)[C@@H](N)Cc1c[nH]cn1)[C@@H](C)O)[C@@H](C)O)C(=O)N[C@@H](CCC(=O)O)C(=O)N[C@@H](CCCCN)C(=O)N[C@@H](CCC(N)=O)C(=O)N[C@@H](CCCNC(=N)N)C(=O)N[C@@H](CCC(N)=O)C(=O)NC(C)(C)C(=O)N[C@@H](CCC(=O)O)C(=O)N[C@@H](Cc1ccccc1)C(=O)N[C@H](C(=O)N[C@@H](CCC(=O)O)C(=O)N[C@@H](Cc1c[nH]c2ccccc12)C(=O)N[C@@H](CC(C)C)C(=O)N[C@@H](CCCCN)C(=O)N[C@@H](C)C(=O)N[C@H](C)C(=O)NCC(=O)N1CCC[C@H]1C(=O)N1CCC[C@H]1C(=O)N[C@@H](CO)C(=O)NC(C)(C)C(=O)N[C@@H](CCCCN)C(=O)N1CCC[C@H]1C(=O)N1CCC[C@H]1C(=O)N1CCC[C@H]1C(=O)N[C@@H](CCCCN)C(N)=O)[C@@H](C)CC)C(=O)O)C(=O)O` [SEQ ID NO: 7, H-Aib-Q-G-T-F-T-S-D-L-S-K-L-K[gGlu-gGlu-Palm]-E-K-Q-R-Q-Aib-E-F-I-E-W-L-K-A-dAla-G-P-P-S-Aib-K-P-P-P-K-NH2] (H-H[Aib]QGTFTSDLSKLK([γGlu-γGlu-Palmitoyl])EKQRQ[Aib]EFIEWLKA[dA]GPPS[Aib]KPPPK-NH2), for which the “Chemical stability [relative purity loss 28 days 40° C.] (%) at pH 4.5” value in data set [1] was found to be 6.8%. In data set [2], this compound gave a solubility at 1 h greater than 9900 µg/mL. In data set [4], the “Delta Rh [nm] = Rh5 − Rh1” value is on record as −0.3 nm, the “Rh1 [nm] c= 1 mg/ml” value was 2.8 nm and the “Rh5 [nm] c = 5 mg/ml” value came out at 2.4 nm. The “Lag time before increase” value in data set [3] is recorded as greater than 45 h.
For the compound `CCCCCCCCCCCCCCCC(=O)N[C@@H](CCC(=O)N[C@@H](CCC(=O)NCCCC[C@H](NC(=O)[C@H](CC(C)C)NC(=O)[C@H](CCCCN)NC(=O)[C@H](CO)NC(=O)[C@H](CC(C)C)NC(=O)[C@H](CC(=O)O)NC(=O)[C@H](CO)NC(=O)[C@@H](NC(=O)[C@H](Cc1ccccc1)NC(=O)[C@@H](NC(=O)CNC(=O)[C@H](CCC(N)=O)NC(=O)C(C)(C)NC(=O)[C@@H](N)Cc1c[nH]cn1)[C@@H](C)O)[C@@H](C)O)C(=O)N[C@@H](CCC(=O)O)C(=O)N[C@@H](CCC(=O)O)C(=O)N[C@@H](CCC(N)=O)C(=O)N[C@@H](CCCNC(=N)N)C(=O)N[C@@H](CCC(N)=O)C(=O)NC(C)(C)C(=O)N[C@@H](CCC(=O)O)C(=O)N[C@@H](Cc1ccccc1)C(=O)N[C@H](C(=O)N[C@@H](CCC(=O)O)C(=O)N[C@@H](Cc1c[nH]c2ccccc12)C(=O)N[C@@H](CC(C)C)C(=O)N[C@@H](CCCCN)C(=O)N[C@@H](C)C(=O)N[C@H](C)C(=O)NCC(=O)N1CCC[C@H]1C(=O)N1CCC[C@H]1C(=O)N[C@@H](CO)C(=O)NC(C)(C)C(=O)N[C@@H](CCCCN)C(=O)N1CCC[C@H]1C(=O)N1CCC[C@H]1C(=O)N1CCC[C@H]1C(=O)N[C@@H](CCCCN)C(N)=O)[C@@H](C)CC)C(=O)O)C(=O)O` [SEQ ID NO: 10, H-Aib-Q-G-T-F-T-S-D-L-S-K-L-K[gGlu-gGlu-Palm]-E-E-Q-R-Q-Aib-E-F-I-E-W-L-K-A-dAla-G-P-P-S-Aib-K-P-P-P-K-NH2] (H-H[Aib]QGTFTSDLSKLK([γGlu-γGlu-Palmitoyl])EEQRQ[Aib]EFIEWLKA[dA]GPPS[Aib]KPPPK-NH2), the “Chemical stability [relative purity loss 28 days 40° C.] (%) at pH 4.5” value in data set [1] turned out to be 7.4%. Besides, the solubility at 1 h in data set [2] is greater than 10100 µg/mL. Further, the “Lag time before increase” value in data set [3] is greater than 45 h.
Regarding `CCCCCCCCCCCCCCCC(=O)N[C@@H](CCC(=O)N[C@@H](CCC(=O)NCCCC[C@H](NC(=O)[C@H](CC(C)C)NC(=O)[C@H](CCCCN)NC(=O)[C@H](CO)NC(=O)[C@H](CC(C)C)NC(=O)[C@H](CC(=O)O)NC(=O)[C@H](CO)NC(=O)[C@@H](NC(=O)[C@H](Cc1ccccc1)NC(=O)[C@@H](NC(=O)CNC(=O)[C@H](CCC(N)=O)NC(=O)C(C)(C)NC(=O)[C@@H](N)Cc1c[nH]cn1)[C@@H](C)O)[C@@H](C)O)C(=O)N[C@@H](CCC(=O)O)C(=O)N[C@@H](CCC(=O)O)C(=O)N[C@@H](CCC(N)=O)C(=O)N[C@@H](CCCNC(=N)N)C(=O)N[C@@H](CCC(N)=O)C(=O)NC(C)(C)C(=O)N[C@@H](CCC(=O)O)C(=O)N[C@@H](Cc1ccccc1)C(=O)N[C@H](C(=O)N[C@@H](CCC(=O)O)C(=O)N[C@@H](Cc1c[nH]c2ccccc12)C(=O)N[C@@H](CC(C)C)C(=O)N[C@@H](CCCCN)C(=O)N[C@@H](C)C(=O)NCC(=O)NCC(=O)N1CCC[C@H]1C(=O)N1CCC[C@H]1C(=O)N[C@@H](CO)C(=O)NC(C)(C)C(=O)N[C@@H](CCCCN)C(=O)N1CCC[C@H]1C(=O)N1CCC[C@H]1C(=O)N1CCC[C@H]1C(=O)N[C@@H](CCCCN)C(N)=O)[C@@H](C)CC)C(=O)O)C(=O)O` [SEQ ID NO: 9, H-Aib-Q-G-T-F-T-S-D-L-S-K-L-K[gGlu-gGlu-Palm]-E-E-Q-R-Q-Aib-E-F-I-E-W-L-K-A-G-G-P-P-S-Aib-K-P-P-P-K-NH2], the “Chemical stability [relative purity loss 28 days 40° C.] (%) at pH 4.5” value in data set [1] was 8.7%. Further, the “Lag time before increase” value in data set [3] was greater than 45 h.
